The values below come from US12440484B2, “1,3,4-oxadiazole homophthalimide derivative compounds as histone deacetylase 6 inhibitor, and the pharmaceutical composition comprising the same” (Chong Kun Dang Pharmaceutical Corp., priority 2019, dated 2025).

The IC50 is the concentration that inhibits the measured activity by half.

The structures appear in SMILES notation.

One assay deals with HDAC6 human recombinant (Homo sapiens (Human), UniProt Q9UBN7). In words: HDAC enzyme activity inhibition (in vitro), HDAC6 assay. Format: biochemical. The settings on record: samples at 0.1, 1, 10, 100 and 1000 nM; 37° C. 60 minutes; fluorescence Ex 390, Em 460.
Sequence of HDAC6 human recombinant (Q9UBN7 whole entry): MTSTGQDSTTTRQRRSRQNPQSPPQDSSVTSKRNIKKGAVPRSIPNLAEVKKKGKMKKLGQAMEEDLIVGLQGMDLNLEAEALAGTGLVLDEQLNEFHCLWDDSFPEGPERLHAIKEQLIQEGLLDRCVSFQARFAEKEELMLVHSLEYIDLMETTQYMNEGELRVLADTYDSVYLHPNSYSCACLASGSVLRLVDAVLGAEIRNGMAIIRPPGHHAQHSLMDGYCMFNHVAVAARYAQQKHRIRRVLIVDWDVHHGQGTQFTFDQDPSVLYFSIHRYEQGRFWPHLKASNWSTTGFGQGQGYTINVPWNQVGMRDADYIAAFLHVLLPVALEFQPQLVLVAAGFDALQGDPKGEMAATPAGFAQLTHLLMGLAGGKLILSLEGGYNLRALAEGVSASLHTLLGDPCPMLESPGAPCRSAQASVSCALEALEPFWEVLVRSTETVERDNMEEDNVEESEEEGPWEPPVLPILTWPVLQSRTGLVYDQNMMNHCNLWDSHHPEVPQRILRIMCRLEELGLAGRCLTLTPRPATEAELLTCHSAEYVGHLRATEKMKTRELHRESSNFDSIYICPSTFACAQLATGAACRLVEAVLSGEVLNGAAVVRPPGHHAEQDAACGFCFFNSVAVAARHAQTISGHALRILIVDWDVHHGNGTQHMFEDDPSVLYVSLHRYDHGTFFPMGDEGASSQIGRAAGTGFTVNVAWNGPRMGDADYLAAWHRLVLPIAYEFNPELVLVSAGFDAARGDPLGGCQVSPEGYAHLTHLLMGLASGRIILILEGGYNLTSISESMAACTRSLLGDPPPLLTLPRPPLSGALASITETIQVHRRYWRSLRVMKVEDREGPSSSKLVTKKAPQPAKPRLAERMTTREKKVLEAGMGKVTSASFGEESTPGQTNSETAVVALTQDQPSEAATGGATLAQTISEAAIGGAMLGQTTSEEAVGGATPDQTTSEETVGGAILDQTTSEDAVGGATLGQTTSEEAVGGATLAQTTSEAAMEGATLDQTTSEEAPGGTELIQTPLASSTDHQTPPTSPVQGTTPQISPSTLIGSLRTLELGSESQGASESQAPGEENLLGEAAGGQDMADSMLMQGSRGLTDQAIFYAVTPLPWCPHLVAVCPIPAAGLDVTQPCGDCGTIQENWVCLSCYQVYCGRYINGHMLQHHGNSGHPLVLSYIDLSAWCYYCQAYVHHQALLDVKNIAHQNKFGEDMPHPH
The target in another assay is HDAC1 (Homo sapiens (Human), UniProt Q13547). In words: HDAC enzyme activity inhibition (in vitro), HDAC1 Fluorimetric Drug Discovery Assay Kit. Format: biochemical. The settings on record: samples at 100, 1000 and 10000 nM; 37° C. 60 minutes; fluorescence Ex 390, Em 460.
Sequence of HDAC1 (Q13547 whole entry): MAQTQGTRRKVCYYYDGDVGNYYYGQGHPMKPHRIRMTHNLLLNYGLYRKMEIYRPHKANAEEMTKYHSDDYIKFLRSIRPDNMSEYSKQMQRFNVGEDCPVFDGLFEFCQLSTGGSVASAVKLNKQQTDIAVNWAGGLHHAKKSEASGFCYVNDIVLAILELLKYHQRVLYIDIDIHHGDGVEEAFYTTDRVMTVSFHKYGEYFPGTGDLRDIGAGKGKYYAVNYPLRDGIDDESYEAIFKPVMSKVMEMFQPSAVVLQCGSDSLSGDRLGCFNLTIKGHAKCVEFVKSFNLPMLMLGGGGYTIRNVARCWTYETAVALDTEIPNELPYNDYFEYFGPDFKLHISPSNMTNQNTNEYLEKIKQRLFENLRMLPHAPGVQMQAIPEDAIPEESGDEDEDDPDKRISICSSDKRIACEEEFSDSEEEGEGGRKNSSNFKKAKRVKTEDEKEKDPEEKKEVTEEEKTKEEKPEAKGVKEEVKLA

Turning to `O=C1c2ccc(Br)cc2C2(CCCCC2)C(=O)N1Cc1ccc(-c2nnc(C(F)F)o2)cn1` [Compound 107, 6′-bromo-2′-((5-(5-(difluoromethyl)-1,3,4-oxadiazole-2-yl)pyridine-2-yl)methyl)-1′H-spiro[cyclohexane-1,4′-isoquinoline]-1′,3′(2′H)-dione], the IC50 was 0.148 µM at HDAC6 human recombinant and greater than 10 µM on HDAC1.
With `CC(C)N1CCN(c2ccc3c(c2)C(C)(C)C(=O)N(Cc2ccc(-c4nnc(C(F)F)o4)cn2)C3=O)CC1` [Compound 26, 2-((5-(5-(difluoromethyl)-1,3,4-oxadiazole-2-yl)pyridine-2-yl)methyl)-6-(4-isopropylpiperazine-1-yl)-4,4-dimethylisoquinoline-1,3(2H,4H)-dione], the figures for the IC50 at HDAC6 human recombinant and at HDAC1 were 0.022 µM and greater than 10 µM, respectively.
The like results for `CN1CCC(Cn2c(=O)n(Cc3ccc(-c4nnc(C(F)F)o4)cn3)c(=O)c3ccccc32)CC1` [Compound 15, 3-((5-(5-(difluoromethyl)-1,3,4-oxadiazole-2-yl)pyridine-2-yl)methyl)-1-((1-methylpiperidine-4-yl)methyl)quinazoline-2,4(1H,3H)-dione] were, in that order, 0.196 µM and greater than 10 µM.
Take `CC1(C)C(=O)N(Cc2ccc(-c3nnc(C(F)F)o3)cn2)C(=O)c2ccc(N3CCOCC3)cc21` [Compound 24, 2-((5-(5-(difluoromethyl)-1,3,4-oxadiazole-2-yl)pyridine-2-yl)methyl)-4,4-dimethyl-6-morpholinoisoquinoline-1,3(2H,4H)-dione]: the values for the IC50 on HDAC6 human recombinant and at HDAC1 were 0.021 µM and greater than 10 µM, respectively.
The like results for `CC1(C)C(=O)N(Cc2ccc(-c3nnc(C(F)F)o3)cn2)C(=O)c2cc(-c3cccc(F)c3)ccc21` [Compound 108, 2-((5-(5-(difluoromethyl)-1,3,4-oxadiazole-2-yl)pyridine-2-yl)methyl)-7-(3-fluorophenyl)-4,4-dimethylisoquinoline-1,3(2H,4H)-dione] were, in that order, 0.211 µM and greater than 10 µM.
The like results for `CN1CCC(Cn2c(=O)n(Cc3ccc(-c4nnc(C(F)F)o4)cn3)c(=O)c3cc(F)ccc32)CC1` [Compound 73, 3-((5-(5-(difluoromethyl)-1,3,4-oxadiazole-2-yl)pyridine-2-yl)methyl)-6-fluoro-1-((1-methylpiperidine-4-yl)methyl)quinazoline-2,4(1H,3H)-dione] were, in that order, 0.098 µM and greater than 10 µM.
For the compound `CC1(C)C(=O)N(Cc2ccc(-c3nnc(C(F)F)o3)cn2)C(=O)c2cc(C3CCN(S(C)(=O)=O)CC3)ccc21` [Compound 128, 2-((5-(5-(difluoromethyl)-1,3,4-oxadiazole-2-yl)pyridine-2-yl)methyl)-4,4-dimethyl-7-(1-(methylsulfonyl)piperidine-4-yl)isoquinoline-1,3(2H,4H)-dione], the IC50 is 0.07 µM at HDAC6 human recombinant and greater than 10 µM on HDAC1.
For `CC(F)(F)CN1CCN(c2ccc3c(c2)C(C)(C)C(=O)N(Cc2ccc(-c4nnc(C(F)F)o4)cn2)C3=O)CC1` [Compound 138, 2-((5-(5-(difluoromethyl)-1,3,4-oxadiazole-2-yl)pyridine-2-yl)methyl)-6-(4-(2,2-difluoropropyl)piperazine-1-yl)-4,4-dimethylisoquinoline-1,3(2H,4H)-dione], the half-maximal inhibitory concentration (IC50) at HDAC6 human recombinant is 0.096 µM; on HDAC1 it was greater than 10 µM.
The like results for `CNC(=O)C1CCN(c2ccc3c(c2)C(C)(C)C(=O)N(Cc2ccc(-c4nnc(C(F)F)o4)cn2)C3=O)CC1` [Compound 56, 1-(2-((5-(5-(difluoromethyl)-1,3,4-oxadiazole-2-yl)pyridine-2-yl)methyl)-4,4-dimethyl-1,3-dioxo-1,2,3,4-tetrahydroisoquinoline-6-yl)-N-methylpiperidine-4-carboxamide] were, in that order, 0.046 µM and greater than 10 µM.
The like results for `CC1(C)C(=O)N(Cc2ccc(-c3nnc(C(F)F)o3)cn2)C(=O)c2cc(C3CCN(C(=O)CO)CC3)ccc21` [Compound 134, 2-((5-(5-(difluoromethyl)-1,3,4-oxadiazole-2-yl)pyridine-2-yl)methyl)-7-(1-(2-hydroxyacetyl)piperidine-4-yl)-4,4-dimethylisoquinoline-1,3(2H,4H)-dione] were, in that order, 0.012 µM and greater than 10 µM.
As to `CC1(C)C(=O)N(Cc2ccc(-c3nnc(C(F)F)o3)cn2)C(=O)c2ccc(N3CC4(COC4)C3)cc21` [Compound 40, 2-((5-(5-(difluoromethyl)-1,3,4-oxadiazole-2-yl)pyridine-2-yl)methyl)-4,4-dimethyl-6-(2-oxa-6-azaspiro[3.3]heptane-6-yl)isoquinoline-1,3(2H,4H)-dione], the results for the IC50 on HDAC6 human recombinant and at HDAC1 were 0.022 µM and greater than 10 µM, respectively.
The like results for `CC1(C)C(=O)N(Cc2ccc(-c3nnc(C(F)F)o3)cc2)C(=O)c2ccccc21` [Compound 6, 2-(4-(5-(difluoromethyl)-1,3,4-oxadiazole-2-yl)benzyl)-4,4-dimethylisoquinoline-1,3(2H,4H)-dione] were, in that order, 0.647 µM and greater than 10 µM.
As to `CC1(C)C(=O)N(Cc2ccc(-c3nnc(C(F)F)o3)cn2)C(=O)c2ccc(N3CCN(C(C)(C)C)CC3)cc21` [Compound 36, 6-(4-(tert-butyl)piperazine-1-yl)-2-((5-(5-(difluoromethyl)-1,3,4-oxadiazole-2-yl)pyridine-2-yl)methyl)-4,4-dimethylisoquinoline-1,3(2H,4H)-dione], the values for the half-inhibitory concentration (IC50) at HDAC6 human recombinant and against HDAC1 were 0.024 µM and greater than 10 µM, respectively.
The like results for `CC(C)CN1CCC(c2ccc3c(c2)C(=O)N(Cc2ccc(-c4nnc(C(F)F)o4)cn2)C(=O)C3(C)C)CC1` [Compound 144, 2-((5-(5-(difluoromethyl)-1,3,4-oxadiazole-2-yl)pyridine-2-yl)methyl)-7-(1-isobutylpiperidine-4-yl)-4,4-dimethylisoquinoline-1,3(2H,4H)-dione] were, in that order, 0.034 µM and greater than 10 µM.
For the compound `CC1(C)C(=O)N(Cc2ccc(-c3nnc(C(F)F)o3)cn2)C(=O)c2ccc(N3CCN(c4ncccn4)CC3)cc21` [Compound 50, 2-((5-(5-(difluoromethyl)-1,3,4-oxadiazole-2-yl)pyridine-2-yl)methyl)-4,4-dimethyl-6-(4-(pyrimidine-2-yl)piperazine-1-yl)isoquinoline-1,3(2H,4H)-dione], the IC50 on HDAC6 human recombinant was 0.052 µM; against HDAC1, greater than 10 µM.
For the compound `O=c1c2ccccc2n(Cc2ccc(-c3nnc(C(F)F)o3)cn2)c(=O)n1Cc1ccc(-c2nnc(C(F)F)o2)cn1` [Compound 78, 1,3-bis((5-(5-(difluoromethyl)-1,3,4-oxadiazole-2-yl)pyridine-2-yl)methyl)quinazoline-2,4(1H,3H)-dione], the half-inhibitory concentration (IC50) is 0.04 µM on HDAC6 human recombinant and greater than 10 µM against HDAC1.
For the compound `CC1(C)C(=O)N(Cc2ccc(-c3nnc(C(F)F)o3)cn2)C(=O)c2cc(-c3cccc4[nH]ccc34)ccc21` [Compound 115, 2-((5-(5-(difluoromethyl)-1,3,4-oxadiazole-2-yl)pyridine-2-yl)methyl)-7-(1H-indole-4-yl)-4,4-dimethylisoquinoline-1,3(2H,4H)-dione], the IC50 was 0.059 µM at HDAC6 human recombinant and greater than 10 µM on HDAC1.
The like results for `Cc1ccc(-c2cccc3c2C(=O)N(Cc2ccc(-c4nnc(C(F)F)o4)cn2)C(=O)C3(C)C)o1` [Compound 93, 2-((5-(5-(difluoromethyl)-1,3,4-oxadiazole-2-yl)pyridine-2-yl)methyl)-4,4-dimethyl-8-(5-methylfuran-2-yl)isoquinoline-1,3(2H,4H)-dione] were, in that order, 0.143 µM and greater than 10 µM.
